Publication PMC7377239, “Cardiovascular Effects of Polychlorinated Biphenyls and Their Major Metabolites” (Environmental Health Perspectives, 2020)
Read-outs that look alike come from different tables or passages of the source.

Tested on: iCell cardiomyocytes (human iPSC-derived cardiomyocytes)
Test: High-content imaging of cytotoxicity and mitochondrial integrity in iPSC-CMs
Assay type: cell-based
Details: Homo sapiens; for viability at 0.01 µM / activity at 0.01 µM / viability at 0.1 µM / activity at 0.1 µM / viability at 1 µM / activity at 1 µM / viability at 10 µM / activity at 10 µM / viability at 100 µM / activity at 100 µM: 0.00 µM = 100.00; for viability at 0.1 µM / activity at 0.1 µM: 0.10 µM
Protocol: Details on cardiomyocyte cell culture are described in detail elsewhere ([Grimm et al. 2015b]; [Sirenko et al. 2013a]). Briefly, tissue-culture treated 384 well plates were gelatinized with 25μL per well of 0.1% (w/v) gelatin in water for 2 h at 37°C and 5% CO2 . Individual vials of cells were thawed for 4 min in a water bath maintained at 37°C. Thawed cells were resuspended in 10ml plating medium containing 1:500 (vol/vol) penicillin/streptomycin solution at room temperature (RT). Live cell counts for each cell suspension were determined by trypan blue staining and cells were further diluted to provide final cell densities of 2×10^5 viable cells/ml. Thus, 5,000 cells suspended in 25μL media were transferred per well after the gelatin solution had been discarded. Cell culture plates were rested for 30 min at RT before they were incubated for 48 h at 37°C and 5% CO2 . Then, a media exchange with 30μL of fresh maintenance medium containing 1:500 (vol/vol) penicillin/streptomycin solution was performed, and cell media were subsequently changed every 48 h for 12 d. On the experiment day, the medium was completely exchanged with either 25μL (for Ca^2+ flux assay) or 40μL (for imaging) of fresh medium.
Cytotoxicity and effects on mitochondrial integrity of various PCBs and PCB metabolites in induced pluripotent stem cell-CMs (iPSC-CMs) were assessed using high-content cellular imaging in ImageXpress® Micro Confocal (Molecular Devices) as detailed in ([Grimm et al. 2015b]). Cells in 40μL maintenance media were treated with 10μL of 5× chemical solutions to provide test chemicals at final assay concentrations ranging from 0.01 to 100μM . […] Next, sample wells were treated with 50μL equilibrated 2× concentrated staining solution (maintenance medium containing Hoechst 33342, 4μg/mL and MitoTracker™ Orange, 0.4μM ). Microplates were then incubated for 15 min at 37°C and 5% CO2 before cells were washed twice with 30μL maintenance medium. All media were aspirated and discarded, and cells were fixed with […] of a 3.7% formaldehyde solution for 15 min at 37°C and 5% […] . Fixed cells were washed 3× with 25μL PBS before image acquisition using the DAPI (Hoechst 33342) and Cy3 (MitoTracker™ Orange) filters at 10× magnification on the ImageXpress® Micro Confocal high-content confocal microscope (Molecular Devices). The multiwavelength cell scoring applications module in MetaXpress® was used to analyze acquired images.
Phenotypic responses were quantitatively assessed using concentration–response modeling as detailed elsewhere ([Sirenko et al. 2017]). Briefly, phenotypic readouts were normalized to vehicle controls and fit to a four-parameter logistic model in R studio software (version 3.1.1; R Development Core Team). Following EPA guidance on dose–response modeling, a cutoff of one standard deviation across means of vehicle control (i.e., 0.5% vol/vol DMSO in cell culture media) wells was applied to determine the point-of-departure (POD) values ([U.S. EPA 2012]). In the absence of a concentration–response, the highest tested concentration (i.e., 100μM ) was assigned as “no observable adverse effect level.” The concentration–response assessment R script, as well as templates for vehicle and concentration–response data, are available as a supplement to Sirenko et al. ([2017]). The ability of physicochemical properties to predict differences in PODs were evaluated by multiregression and mixed-effects modeling using R.

[1] = Cardiomyocyte, 1.5 h, read-out: cm.cam.90min
[2] = Cardiomyocyte, 1.5 h, read-out: cm.mii.90min
[3] = Cardiomyocyte, 1.5 h, read-out: cm.mito.90min
[4] = Cardiomyocyte, 1.5 h, read-out: cm.tc.90min
[5] = Cardiomyocyte, 24 h, read-out: cm.cam.24hrs
[6] = Cardiomyocyte, 24 h, read-out: cm.mii.24hrs
[7] = Cardiomyocyte, 24 h, read-out: cm.mito.24hrs
[8] = Cardiomyocyte, 24 h, read-out: cm.tc.24hrs

**Q.** Which viability at 0.01 µM [1] does the source give for Oc1ccc(O)c(-c2ccc(Cl)cc2)c1 [2',5'-DiOH PCB3] here?
**A.** The viability at 0.01 µM was 104%.

**Q.** And the activity at 0.01 µM [2]?
**A.** Its activity at 0.01 µM is 107%.

**Q.** And the activity at 0.01 µM [3]?
**A.** The activity at 0.01 µM was 103%.

**Q.** What about the viability at 0.01 µM [4] of the same compound?
**A.** Its viability at 0.01 µM is 104%.

**Q.** And the viability at 0.1 µM [1]?
**A.** The viability at 0.1 µM was 94.2%.

**Q.** And the activity at 0.1 µM [2]?
**A.** The activity at 0.1 µM was 114%.

**Q.** What about the activity at 0.1 µM [3] of the same compound?
**A.** Its activity at 0.1 µM is 93.9%.

**Q.** What about the viability at 0.1 µM [4] of the same compound?
**A.** Its viability at 0.1 µM is 94.3%.

**Q.** And the viability at 1 µM [1]?
**A.** Its viability at 1 µM is 100%.

**Q.** What about the activity at 1 µM [2] of the same compound?
**A.** Its activity at 1 µM is 108%.

**Q.** What about the activity at 1 µM [3] of the same compound?
**A.** The activity at 1 µM was 100%.

**Q.** And the viability at 1 µM [4]?
**A.** The viability at 1 µM was 100%.

**Q.** What about the viability at 10 µM [1] of the same compound?
**A.** Its viability at 10 µM is 101%.

**Q.** And the activity at 10 µM [2]?
**A.** Its activity at 10 µM is 84.5%.

**Q.** What about the activity at 10 µM [3] of the same compound?
**A.** The activity at 10 µM was 99.4%.

**Q.** What about the viability at 10 µM [4] of the same compound?
**A.** The viability at 10 µM was 101%.

**Q.** What about the viability at 100 µM [1] of the same compound?
**A.** Its viability at 100 µM is 0%.

**Q.** And the activity at 100 µM [2]?
**A.** Its activity at 100 µM is 0%.

**Q.** And the activity at 100 µM [3]?
**A.** Its activity at 100 µM is 0%.

**Q.** What about the viability at 100 µM [4] of the same compound?
**A.** Its viability at 100 µM is 0%.

**Q.** What about the viability at 0.01 µM [5] of the same compound?
**A.** The viability at 0.01 µM was 84.9%.

**Q.** And the activity at 0.01 µM [6]?
**A.** Its activity at 0.01 µM is 104%.

**Q.** And the activity at 0.01 µM [7]?
**A.** Its activity at 0.01 µM is 82.4%.

**Q.** What about the viability at 0.01 µM [8] of the same compound?
**A.** Its viability at 0.01 µM is 85.7%.

**Q.** And the viability at 0.1 µM [5]?
**A.** The viability at 0.1 µM was 100%.

**Q.** What about the activity at 0.1 µM [6] of the same compound?
**A.** The activity at 0.1 µM was 110%.

**Q.** What about the activity at 0.1 µM [7] of the same compound?
**A.** The activity at 0.1 µM was 101%.

**Q.** What about the viability at 0.1 µM [8] of the same compound?
**A.** Its viability at 0.1 µM is 100%.

**Q.** What about the viability at 1 µM [5] of the same compound?
**A.** The viability at 1 µM was 97.7%.

**Q.** What about the activity at 1 µM [6] of the same compound?
**A.** Its activity at 1 µM is 98.1%.

**Q.** What about the activity at 1 µM [7] of the same compound?
**A.** Its activity at 1 µM is 94.2%.

**Q.** And the viability at 1 µM [8]?
**A.** The viability at 1 µM was 97.9%.

**Q.** And the viability at 10 µM [5]?
**A.** Its viability at 10 µM is 45.5%.

**Q.** And the activity at 10 µM [6]?
**A.** The activity at 10 µM was 157%.

**Q.** What about the activity at 10 µM [7] of the same compound?
**A.** The activity at 10 µM was 40.2%.

**Q.** And the viability at 10 µM [8]?
**A.** The viability at 10 µM was 45.4%.

**Q.** And the viability at 100 µM [5]?
**A.** Its viability at 100 µM is 0%.

**Q.** And the activity at 100 µM [6]?
**A.** The activity at 100 µM was 0%.

**Q.** What about the activity at 100 µM [7] of the same compound?
**A.** Its activity at 100 µM is 0%.

**Q.** And the viability at 100 µM [8]?
**A.** Its viability at 100 µM is 0%.

**Q.** And the minimal effective concentration (iPSC-CM, 1.5 h, iPSC-CM, read-out: cm.cam.90min POD)?
**A.** Its minimal effective concentration is 32.4 µM.

**Q.** And the minimal effective concentration (iPSC-CM, 1.5 h, iPSC-CM, read-out: cm.mii.90min POD)?
**A.** The minimal effective concentration was 7.9 µM.

**Q.** What about the minimal effective concentration (iPSC-CM, 1.5 h, iPSC-CM, read-out: cm.mito.90min POD) of the same compound?
**A.** Its minimal effective concentration is 12.7 µM.

**Q.** What about the minimal effective concentration (iPSC-CM, 1.5 h, iPSC-CM, read-out: cm.tc.90min POD) of the same compound?
**A.** Its minimal effective concentration is 33.4 µM.

**Q.** And the minimal effective concentration (iPSC-CM, 24 h, iPSC-CM, read-out: cm.cam.24hrs POD)?
**A.** Its minimal effective concentration is 1.84 µM.

**Q.** What about the minimal effective concentration (iPSC-CM, 24 h, iPSC-CM, read-out: cm.mii.24hrs POD) of the same compound?
**A.** The minimal effective concentration was 2.28 µM.

**Q.** What about the minimal effective concentration (iPSC-CM, 24 h, iPSC-CM, read-out: cm.mito.24hrs POD) of the same compound?
**A.** Its minimal effective concentration is 0.97 µM.

**Q.** What about the minimal effective concentration (iPSC-CM, 24 h, iPSC-CM, read-out: cm.tc.24hrs POD) of the same compound?
**A.** Its minimal effective concentration is 1.88 µM.

**Q.** How did the minimal effective concentration (Cardiomyocyte, 1.5 h, cardiomyocytes (cm), cam, 90 min, read-out: POD cm.cam.90min) turn out when Oc1ccc(O)c(-c2ccc(Cl)cc2)c1 [2',5'-diOH-PCB 3, 4-Chloro-2′,5′-dihydroxybiphenyl] was run?
**A.** The minimal effective concentration was 32.4 µM.

**Q.** What about the minimal effective concentration (Cardiomyocyte, 1.5 h, cardiomyocytes (cm), mii, 90 min, read-out: POD cm.mii.90min) of the same compound?
**A.** The minimal effective concentration was 7.9 µM.

**Q.** What about the minimal effective concentration (Cardiomyocyte, 1.5 h, cardiomyocytes (cm), mito, 90 min, read-out: POD cm.mito.90min) of the same compound?
**A.** Its minimal effective concentration is 12.7 µM.

**Q.** What about the minimal effective concentration (Cardiomyocyte, 1.5 h, cardiomyocytes (cm), tc, 90 min, read-out: POD cm.tc.90min) of the same compound?
**A.** Its minimal effective concentration is 33.4 µM.

**Q.** And the minimal effective concentration (Cardiomyocyte, 24 h, cardiomyocytes (cm), cam, 24 hrs, read-out: POD cm.cam.24hrs)?
**A.** The minimal effective concentration was 1.84 µM.

**Q.** What about the minimal effective concentration (Cardiomyocyte, 24 h, cardiomyocytes (cm), mii, 24 hrs, read-out: POD cm.mii.24hrs) of the same compound?
**A.** The minimal effective concentration was 2.28 µM.

**Q.** And the minimal effective concentration (Cardiomyocyte, 24 h, cardiomyocytes (cm), mito, 24 hrs, read-out: POD cm.mito.24hrs)?
**A.** The minimal effective concentration was 0.97 µM.

**Q.** What about the minimal effective concentration (Cardiomyocyte, 24 h, cardiomyocytes (cm), tc, 24 hrs, read-out: POD cm.tc.24hrs) of the same compound?
**A.** The minimal effective concentration was 1.88 µM.
